Experimental data as given in patent US8097637B2, “Benzoyl-piperidine derivatives as dual modulators of the 5-HT2A and D3 receptors” (Hoffmann-La Roche Inc., priority 2007, dated 2012).

Assays:
[1] = biological target: T1, human D3 dopamine receptor (Homo sapiens, UniProt P35462); assay: Radioligand binding ([3H]-spiperone) to cloned human D3 receptor, HEK-293 EBNA cell membranes; settings: 0.5 nM [3H]-spiperone, 1 h at RT, Cheng-Prusoff
T1 construct: expressed in transfected cells; host or cells: HEK-293 EBNA cells, transient transfection; membrane preparation
T1 sequence (P35462 whole entry): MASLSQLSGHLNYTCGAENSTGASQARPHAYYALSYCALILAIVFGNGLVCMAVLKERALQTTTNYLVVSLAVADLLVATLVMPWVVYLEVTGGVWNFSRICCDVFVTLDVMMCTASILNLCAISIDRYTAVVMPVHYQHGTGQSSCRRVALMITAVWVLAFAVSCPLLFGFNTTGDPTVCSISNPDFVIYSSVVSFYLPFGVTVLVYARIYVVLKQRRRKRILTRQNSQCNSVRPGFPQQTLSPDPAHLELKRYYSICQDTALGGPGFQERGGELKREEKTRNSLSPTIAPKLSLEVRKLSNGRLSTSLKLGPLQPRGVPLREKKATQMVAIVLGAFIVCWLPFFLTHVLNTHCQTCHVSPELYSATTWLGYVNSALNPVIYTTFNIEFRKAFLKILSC
Description: The ability of the compounds to bind to the 5-HT2A, D3 and D2 receptors was determined using radioligand binding to cloned receptors selectively expressed in HEK-293 EBNA cells.
(§1) Membrane Preparation for Human D2, Human D3 and Human 5-HT2A Receptors
(§2) HEK-293 EBNA cells were transiently transfected with expression plasmids encoding for the human D2 or D3 dopamine- or for the human 5-HT2A serotonin receptor, respectively. The cells were harvested 48 h post-transfection, washed three times with cold PBS and stored at −80° C. prior to use. The pellet was suspended in cold 50 mM Tris-HCl buffer containing 10 mM EDTA (pH 7.4) and homogenized with a Polytron (Kinematica AG, Basel, Switzerland) for 20-30 sec at 12.000 rpm. After centrifugation at 48.000×g for 30 min at 4° C., the pellet was resuspended in cold 10 mM Tris-HCl buffer containing 0.1 mM EDTA (pH 7.4), homogenized, and centrifuged as above. This pellet was further resuspended in a smaller volume of ice cold 10 mM Tris-HCl buffer containing 0.1 mM EDTA (pH 7.4) and homogenized with a Polytron for 20-30 sec at 12.000 rpm. The protein content of this homogenate was determined with the Bio-Rad (Bradford) Protein Assay (Biorad Laboratories GmbH, München, Germany) according to the instructions of the manufacturer using gamma globulin as the standard. This homogenate was stored at −80° C. in aliquots and thawed immediately prior to use.
(§3) Radioligand Binding Assay Conditions
(§4) Aliquots of membrane preparations were thawed at RT, resuspended in assay buffer (D2, D3: 50 mM Tris-HCl, 120 mM NaCl, 5 mM MgCl2, 1 mM EDTA, 5 mM KCl, 1.5 mM CaCl2, pH=7.4; 5-HT2A: 50 mM Tris-HCl, 10 mM MgCl2, 1 mM EGTA, pH=7.4), homogenized with a Polytron for 20-30 sec at 12.000 rpm and adjusted to a final concentration of approximately 7.5 μg protein/well (D2, D3) and 15 μg protein/well (5-HT2A), respectively.
(§5) The binding affinity (Ki) of the compounds was determined using radioligand binding. Membranes were incubated in a total volume of 200 μl with a fixed concentration of radioligand (final concentration approximately 0.7 nM [^3H]-spiperone for D2, 0.5 nM [^3H]-spiperone for D3, and 1.1 nM [^3H]-ketanserin for 5-HT2A) and ten concentrations of test compound in ranging between 10 μM-0.1 nM for 1 h at RT. At the end of the incubation, the reaction mixtures were filtered on to unifilter 96-well white microplates with bonded GF/C filters (Packard BioScience, Zürich, Switzerland; preincubated for 1 h in 0.1% polyethylenimine (PEI) in assay buffer) with a Filtermate 196 harvester (Packard BioScience) and washed 3 times with cold assay buffer. The nonspecific binding was determined with equally composed reaction mixtures in the presence of 10 μM unlabeled spiperone. Per well 45 μl of Microscint 40 (Perkin Elmer, Schwerzenbach, Switzerland) was added, plates for sealed, shaken for 20 min and counted for 3 min on a Topcount Microplate Scintillation Counter (Canberra Packard SA, Zürich, Switzerland) with quenching correction.
(§6) The CPM value for each duplicate of a concentration of competing compound was averaged (yl), then the % specific binding was calculated according to the equation (((yl-non-specific)/(total binding-non-specific))×100). Graphs were plotted with the % specific binding using XLfit, a curve fitting program that iteratively plots the data using Levenburg Marquardt algorithm. The single site competition analysis equation used was y=A+((B−A)/(1+((x/C)^D))), where y is the % specific binding, A is the minimum y, B is the maximum y, C is the IC50, x is the log10 of the concentration of the competing compound and D is the slope of the curve (the Hill Coefficient). […] The affinity constant (Ki) was calculated using the Cheng-Prusoff equation Ki=(IC50/1+([L]/Kd), where [L] is the concentration of radioligand and Kd is the dissociation constant of the radioligand at the receptor as determined by the saturation isotherm.

[2] = biological target: T2, human 5-HT2A serotonin receptor (Homo sapiens, UniProt P28223); assay: Radioligand binding ([3H]-ketanserin) to cloned human 5-HT2A receptor, HEK-293 EBNA cell membranes; settings: 1.1 nM [3H]-ketanserin, 1 h at RT, Cheng-Prusoff
T2 construct: expressed in transfected cells; host or cells: HEK-293 EBNA cells, transient transfection; membrane preparation
T2 sequence (P28223 whole entry): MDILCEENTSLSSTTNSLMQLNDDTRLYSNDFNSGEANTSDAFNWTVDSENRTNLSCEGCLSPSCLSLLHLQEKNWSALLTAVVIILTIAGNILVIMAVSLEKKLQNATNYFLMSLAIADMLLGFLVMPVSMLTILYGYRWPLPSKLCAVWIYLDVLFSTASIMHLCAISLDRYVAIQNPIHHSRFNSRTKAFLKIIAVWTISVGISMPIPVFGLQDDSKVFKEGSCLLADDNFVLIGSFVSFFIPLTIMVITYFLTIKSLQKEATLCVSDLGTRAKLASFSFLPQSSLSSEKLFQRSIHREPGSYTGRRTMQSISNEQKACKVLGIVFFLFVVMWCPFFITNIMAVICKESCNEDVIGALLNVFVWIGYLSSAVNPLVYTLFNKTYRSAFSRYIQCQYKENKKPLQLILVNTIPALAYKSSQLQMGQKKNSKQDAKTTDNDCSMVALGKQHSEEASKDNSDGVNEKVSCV
Description: as §1
as §2, with “The” for “HEK-293 EBNA cells were transiently transfected with expression plasmids encoding for the human D2 or D3 dopamine- or for the human 5-HT2A serotonin receptor, respectively. The”
as §3, §4
The binding affinity (Ki) of the compounds was determined using radioligand binding. […] The nonspecific binding was determined with equally composed reaction mixtures in the presence of 10 μM unlabeled spiperone. Per well 45 μl of Microscint 40 (Perkin Elmer, Schwerzenbach, Switzerland) was added, plates for sealed, shaken for 20 min and counted for 3 min on a Topcount Microplate Scintillation Counter (Canberra Packard SA, Zürich, Switzerland) with quenching correction.
as §6

[3] = biological target: T3, human D2 dopamine receptor (Homo sapiens, UniProt P14416); assay: Radioligand binding ([3H]-spiperone) to cloned human D2 receptor, HEK-293 EBNA cell membranes; settings: 0.7 nM [3H]-spiperone, 1 h at RT, Cheng-Prusoff
T3 construct: expressed in transfected cells; host or cells: HEK-293 EBNA cells, transient transfection; membrane preparation
T3 sequence (P14416 whole entry): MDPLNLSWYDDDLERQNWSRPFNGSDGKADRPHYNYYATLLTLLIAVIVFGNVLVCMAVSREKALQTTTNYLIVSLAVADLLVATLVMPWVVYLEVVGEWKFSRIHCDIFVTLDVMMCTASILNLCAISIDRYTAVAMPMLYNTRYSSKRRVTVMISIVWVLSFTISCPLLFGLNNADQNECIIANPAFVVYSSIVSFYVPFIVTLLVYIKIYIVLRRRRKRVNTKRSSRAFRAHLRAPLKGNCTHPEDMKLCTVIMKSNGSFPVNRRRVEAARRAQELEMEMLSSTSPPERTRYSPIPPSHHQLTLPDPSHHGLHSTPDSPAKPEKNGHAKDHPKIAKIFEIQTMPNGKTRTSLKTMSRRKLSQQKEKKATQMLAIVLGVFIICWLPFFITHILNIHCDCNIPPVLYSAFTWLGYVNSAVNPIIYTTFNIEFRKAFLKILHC
Description: as §1, §2, §3, §4, §5, §6

Structure (SMILES)	Ki [1]	Ki [2]	Ki [3]
O=C(CC1CCC(O)CC1)N[C@H]1CC[C@H](CCN2CCC(C(=O)c3ccc(F)cc3)CC2)CC1 (mixture of isomers) [Example 1, N-trans (4-{2-[4-(4-Fluoro-benzoyl)-piperidin-1-yl]-ethyl}-cyclohexyl)-2-cis/trans (4-hydroxy-cyclohexyl)-acetamide]	0.043 µM	0.013 µM	1.49 µM
O=C(CC1CC(CO)C1)N[C@H]1CC[C@H](CCN2CCC(C(=O)c3ccc(F)cc3)CC2)CC1 (mixture of isomers) [Example 19, N-trans (4-{2-[4-(4-Fluoro-benzoyl)-piperidin-1-yl]-ethyl}-cyclohexyl)-2-cis/trans (3-hydroxymethyl-cyclobutyl)-acetamide]	0.028 µM	0.011 µM	1 µM
COCC1CC(CC(=O)N[C@H]2CC[C@H](CCN3CCC(C(=O)c4ccc(F)cc4)CC3)CC2)C1 (mixture of isomers) [Example 20, N-trans(4-{2-[4-(4-Fluoro-benzoyl)-piperidin-1-yl]-ethyl}-cyclohexyl)-2-cis/trans (3-methoxymethyl-cyclobutyl)-acetamide]	0.027 µM	0.012 µM	1.36 µM
CC1(O)CCC(CC(=O)N[C@H]2CC[C@H](CCN3CCC(C(=O)c4ccc(F)cc4)CC3)CC2)CC1 (mixture of isomers) [Example 22, N-trans (4-{2-[4-(4-Fluoro-benzoyl)-piperidin-1-yl]-ethyl}-cyclohexyl)-2-(4-cis/trans-hydroxy-4-methyl-cyclohexyl)-acetamide]	0.056 µM	0.012 µM	1.36 µM
O=C(C[C@H]1CCC[C@@H](O)C1)N[C@H]1CC[C@H](CCN2CCC(C(=O)c3ccc(F)cc3)CC2)CC1 (racemic) [Example 4, rac-N-trans (4-{2-[4-(4-Fluoro-benzoyl)-piperidin-1-yl]-ethyl}-cyclohexyl)-2-cis (3-hydroxy-cyclohexyl)-acetamide]	0.043 µM	0.014 µM	1.01 µM
CO[C@@H]1CCC[C@H](CC(=O)N[C@H]2CC[C@H](CCN3CCC(C(=O)c4ccc(F)cc4)CC3)CC2)C1 (racemic) [Example 5, rac-N-trans (4-{2-[4-(4-Fluoro-benzoyl)-piperidin-1-yl]-ethyl}-cyclohexyl)-2-cis (3-methoxy-cyclohexyl)-acetamide]	0.045 µM	0.019 µM	1.19 µM
O=C(C[C@H]1CC[C@@H](O)C1)N[C@H]1CC[C@H](CCN2CCC(C(=O)c3ccc(F)cc3)CC2)CC1 (racemic) [Example 6, rac-trans-N (4-{2-[4-(4-Fluoro-benzoyl)-piperidin-1-yl]-ethyl}-cyclohexyl)-2-cis (3-hydroxy-cyclopentyl)-acetamide]	0.035 µM	0.011 µM	0.828 µM
O=C(C[C@H]1CC[C@H](O)C1)N[C@H]1CC[C@H](CCN2CCC(C(=O)c3ccc(F)cc3)CC2)CC1 (racemic) [Example 7, rac-N-trans (4-{2-[4-(4-Fluoro-benzoyl)-piperidin-1-yl]-ethyl}-cyclohexyl)-2-trans (3-hydroxy-cyclopentyl)-acetamide]	0.019 µM	0.016 µM	0.807 µM
CO[C@H]1CC[C@H](CC(=O)N[C@H]2CC[C@H](CCN3CCC(C(=O)c4ccc(F)cc4)CC3)CC2)C1 (racemic) [Example 8, rac-N-trans(4-{2-[4-(4-Fluoro-benzoyl)-piperidin-1-yl]-ethyl}-cyclohexyl)-2-trans (3-methoxy-cyclopentyl)-acetamide]	0.023 µM	0.016 µM	–
CO[C@@H]1CC[C@H](CC(=O)N[C@H]2CC[C@H](CCN3CCC(C(=O)c4ccc(F)cc4)CC3)CC2)C1 (racemic) [Example 9, rac-N-trans (4-{2-[4-(4-Fluoro-benzoyl)-piperidin-1-yl]-ethyl}-cyclohexyl)-2-cis (3-methoxy-cyclopentyl)-acetamide]	0.042 µM	0.006 µM	–
CO[C@@H]1CC[C@H](CC(=O)N[C@H]2CC[C@H](CCN3CCC(C(=O)c4ccc(F)cc4)CC3)CC2)C1 (single isomer, unassigned) [Example 10, N-trans (4-{2-[4-(4-Fluoro-benzoyl)-piperidin-1-yl]-ethyl}-cyclohexyl)-2-((1S,3R)-3-methoxy-cyclopentyl)-acetamide or N-trans (4-{2-[4-(4-fluoro-benzoyl)-piperidin-1-yl]-ethyl}-cyclohexyl)-2-((1R,3S)-3-methoxy-cyclopentyl)-acetamide]	0.056 µM	0.005 µM	–
CO[C@H]1CC[C@@H](CC(=O)N[C@H]2CC[C@H](CCN3CCC(C(=O)c4ccc(F)cc4)CC3)CC2)C1 (single isomer, unassigned) [Example 11, N-trans (4-{2-[4-(4-Fluoro-benzoyl)-piperidin-1-yl]-ethyl}-cyclohexyl)-2-((1R,3S)-3-methoxy-cyclopentyl)-acetamide or N-trans (4-{2-[4-(4-fluoro-benzoyl)-piperidin-1-yl]-ethyl}-cyclohexyl)-2-((1S,3R)-3-methoxy-cyclopentyl)-acetamide]	0.062 µM	0.011 µM	–
CO[C@H]1CC[C@H](CC(=O)N[C@H]2CC[C@H](CCN3CCC(C(=O)c4ccc(F)cc4)CC3)CC2)C1 (single isomer, unassigned) [Example 14, N-trans (4-{2-[4-(4-Fluoro-benzoyl)-piperidin-1-yl]-ethyl}-cyclohexyl)-2-((1S,3S)-3-methoxy-cyclopentyl)-acetamide or N-trans (4-{2-[4-(4-fluoro-benzoyl)-piperidin-1-yl]-ethyl}-cyclohexyl)-2-((1R,3R)-3-methoxy-cyclopentyl)-acetamide]	0.018 µM	0.007 µM	–
CO[C@@H]1CC[C@@H](CC(=O)N[C@H]2CC[C@H](CCN3CCC(C(=O)c4ccc(F)cc4)CC3)CC2)C1 (single isomer, unassigned) [Example 15, N-trans (4-{2-[4-(4-Fluoro-benzoyl)-piperidin-1-yl]-ethyl}-cyclohexyl)-2-((1R,3R)-3-methoxy-cyclopentyl)-acetamide or N-trans (4-{2-[4-(4-fluoro-benzoyl)-piperidin-1-yl]-ethyl}-cyclohexyl)-2-((1S,3S)-3-methoxy-cyclopentyl)-acetamide]	0.034 µM	0.016 µM	–
